Experimental data reported in PubChem BioAssay (NCI).
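Five concentrations, 48 hours, 96-well plates. The concentration for 50% growth inhibition is given as GI50. TGI marks complete inhibition of growth.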

How the values were obtained:
Experiment in all cases: growth of human tumour cells (NCI), 48 h
SK-MEL-5 melanoma = system: SK-MEL-5 melanoma
A498 renal = system: A498 renal
SK-MEL-28 melanoma = system: SK-MEL-28 melanoma
NCI-H460 lung = system: NCI-H460 lung
MCF7 breast = system: MCF7 breast
MOLT-4 leukemia = system: MOLT-4 leukemia
KM12 colon = system: KM12 colon
SF-268 CNS = system: SF-268 CNS
NCI-H226 lung = system: NCI-H226 lung
CAKI-1 renal = system: CAKI-1 renal

| Structure (SMILES) | TGI (SK-MEL-5 melanoma) [µM] | TGI (A498 renal) [µM] | TGI (SK-MEL-28 melanoma) [µM] | TGI (NCI-H460 lung) [µM] | TGI (MCF7 breast) [µM] | TGI (MOLT-4 leukemia) [µM] | TGI (KM12 colon) [µM] | TGI (SF-268 CNS) [µM] | TGI (NCI-H226 lung) [µM] | TGI (CAKI-1 renal) [µM] | GI50 (NCI-H226 lung) [µM] | GI50 (A498 renal) [µM] | GI50 (SK-MEL-28 melanoma) [µM] | GI50 (NCI-H460 lung) [µM] | GI50 (MCF7 breast) [µM] | GI50 (MOLT-4 leukemia) [µM] | GI50 (KM12 colon) [µM] | GI50 (SF-268 CNS) [µM] | GI50 (CAKI-1 renal) [µM] |
| --- | --- | --- | --- | --- | --- | --- | --- | --- | --- | --- | --- | --- | --- | --- | --- | --- | --- | --- | --- |
| c1ccc(-c2nnc(SCc3c[nH]c4ccccc34)n2-c2ccccc2)cc1 | 61 | 56 | > 100 | > 100 | > 100 | > 100 | > 100 | > 100 | > 100 | > 100 | – | – | – | – | – | – | – | – | – |
| O=C(Nc1c(C(=O)NC2CCCCC2)[nH]c(=O)[nH]c1=O)c1ccc(Cl)cc1 | > 100 | – | > 100 | > 100 | – | > 100 | > 100 | > 100 | > 100 | > 100 | – | – | – | – | – | – | – | – | – |
| COC1=CC(=O)c2c(cc(COP(=O)(OCC3OC(n4cc(F)c(=O)[nH]c4=O)CC3O)N(C)CCCCCl)n2C)C1=O (configuration not stated) | 1.34 | – | > 68.8 | 14 | 1.84 | > 54 | 97.9 | 16.1 | 47.1 | – | – | – | – | – | – | – | – | – | – |
| C=C1C(=O)O[C@@H]2[C@H]1CCC(C)=C1C=CC(=O)[C@]12C | 27.5 | – | 23.4 | 35.1 | – | 39.4 | 31.4 | 45.9 | 43.4 | 33.2 | – | – | – | – | – | – | – | – | – |
| N=C(N)SCc1cc(Cl)cc(Cl)c1O | 31.9 | 51.7 | 46.4 | 36.2 | 60.1 | 50.8 | 33.7 | 58.3 | 43.1 | 33.3 | – | – | – | – | – | – | – | – | – |
| Cc1ccc(C2N=C(N)NC3=C2CCOc2c3ccc3ccccc23)cc1 (configuration not stated) | 30.9 | 41 | > 100 | > 100 | > 51.5 | > 74.8 | > 51.1 | > 75.6 | > 88.4 | 28.5 | 28.1 | – | – | – | – | – | – | – | – |
| O=C(O)C1CCC(=O)N1S(=O)(=O)c1ccccc1 (configuration not stated) | > 100 | > 100 | > 100 | > 100 | > 100 | > 100 | > 100 | > 100 | > 100 | > 100 | – | – | – | – | – | – | – | – | – |
| COc1ccc(-c2nn(-c3cccc(NC(=O)Nc4ccccc4)c3)cc2-c2ccncc2)cc1Cl | – | 3.28 | 7.16 | 4.48 | 4.91 | 7.96 | 4.89 | 7 | 5.81 | 9.35 | 2.15 | 1.17 | 2.62 | 2.06 | 2.07 | 2.5 | 2.25 | 2.6 | 2.97 |
| CCOc1ccc(/C(C=O)=C(\Cl)c2ccc(OC)c(OC)c2)cc1 | > 100 | > 100 | > 100 | > 100 | – | – | – | > 100 | > 100 | > 100 | – | – | – | – | – | – | – | – | – |
| O=c1cc(N2CCCC2)[nH]c(=O)n1-c1ccc(F)cc1 | – | > 100 | > 100 | > 100 | > 100 | > 100 | > 100 | > 100 | 50.8 | > 100 | – | – | – | – | – | – | – | – | – |
| Clc1ccc(CNc2nc(Cl)c3[nH]cnc3n2)cc1Cl | 37.4 | 45.4 | – | 73.3 | 84.5 | > 100 | > 100 | 81.8 | 78.9 | 79.9 | – | – | – | – | – | – | – | – | – |
| Cc1cc(S(=O)(=O)NC2=NC(c3ccccc3)c3cc(Cl)ccc3N2)c(S)cc1Cl (configuration not stated) | > 100 | > 100 | > 100 | > 100 | > 100 | > 100 | > 100 | > 100 | > 100 | > 100 | – | – | – | – | – | – | – | – | – |
| Cc1cc2c(C(C)C)c(O)c(O)c(C=NCCO)c2c(O)c1-c1c(C)cc2c(C(C)C)c(O)c(O)c(C=NCCO)c2c1O | 3.23 | 9.76 | 3.66 | 2.41 | – | 2.46 | 2.4 | 3.1 | 6.88 | 19.5 | – | – | – | – | – | – | – | – | – |
| CO/C(=C/C(=O)C(Cl)(Cl)Cl)CC/C(=C\C(=O)C(Cl)(Cl)Cl)OC | > 100 | > 100 | 80.5 | 99.3 | 79.8 | > 100 | 98.9 | > 100 | – | 72.2 | – | – | – | – | – | – | – | – | – |
| CN1C[C@H]2[C@@H](C1=O)[C@H](c1ccccc1)ON2C | > 100 | – | > 100 | > 100 | > 100 | > 100 | – | – | > 100 | > 100 | – | – | – | – | – | – | – | – | – |
| COC(=O)[C@@]1(Cc2ccc(O)cc2)C[C@@H]2Cc3ccccc3N2N1 | > 100 | 97.3 | > 100 | – | > 100 | > 100 | > 100 | > 100 | > 100 | > 100 | – | – | – | – | – | – | – | – | – |
